In brackets after ≈: the same amount, converted by molar mass. Where two headings read alike, the source gives them in different places. Starred links: 1 amine or outer side, 2 acyl side, 3 side chain; linkers in the order of their positions; H or OH if unused. Positions of bridges follow the written chain, without caps; N, C: chain ends. Residues, ends and D or L forms follow the SMILES beside them. *: point of attachment. C20 diacid = O=C(O)CCCCCCCCCCCCCCCCCCC(=O)*; C18 diacid = O=C(O)CCCCCCCCCCCCCCCCC(=O)*; γGlu = O=C(O)[C@H](CCC(=O)[*:2])N[*:1]
Legend:
[1] = Assay (IV) determination of solubility; type: physicochemical
Summary of the method: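 Polypeptide in water (~500 nmol/ml stock) was mixed 1:1 with 100 mM buffers from pH 3.0 to 8.0 (glycylglycine pH 3.0–5.0; bistrispropane pH 6.0–8.0). After 18 hours at room temperature, samples were centrifuged and the polypeptide remaining in solution was quantified by HPLC.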

[2] = target: T1, human amylin receptor (amylin 3(a) receptor: human calcitonin receptor + RAMP-3) (Homo sapiens, UniProt O60896+P30988); experiment: Assay (II)a functional CRE-luciferase assay, human amylin receptor; type: cell-based; conditions: Table 2; BHK amylin 3(a)-receptor/CRE-luc cells
T1 construct: expressed in transfected cells; host or cells: BHK570
T1 sequence (P30988 25-474): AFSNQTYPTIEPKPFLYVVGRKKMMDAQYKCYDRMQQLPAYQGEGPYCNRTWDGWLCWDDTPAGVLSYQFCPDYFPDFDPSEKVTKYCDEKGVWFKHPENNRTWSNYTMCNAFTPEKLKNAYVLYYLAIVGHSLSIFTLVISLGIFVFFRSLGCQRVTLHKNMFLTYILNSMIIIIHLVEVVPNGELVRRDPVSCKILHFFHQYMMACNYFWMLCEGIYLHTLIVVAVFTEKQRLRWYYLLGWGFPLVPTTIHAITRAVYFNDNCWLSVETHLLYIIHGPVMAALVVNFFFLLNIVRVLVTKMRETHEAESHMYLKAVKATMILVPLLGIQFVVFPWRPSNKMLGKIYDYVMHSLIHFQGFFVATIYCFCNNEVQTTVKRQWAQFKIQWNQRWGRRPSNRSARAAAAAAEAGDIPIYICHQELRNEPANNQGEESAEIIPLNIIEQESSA
T1 sequence (O60896 24-148 partner): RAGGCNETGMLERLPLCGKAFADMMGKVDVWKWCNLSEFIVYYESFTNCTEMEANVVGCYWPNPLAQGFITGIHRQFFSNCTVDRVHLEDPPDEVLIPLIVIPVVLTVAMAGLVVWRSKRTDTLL

[3] = target: T2, human calcitonin receptor (Homo sapiens, UniProt P30988); experiment: Assay (II)a functional CRE-luciferase assay, human calcitonin receptor; type: cell-based; conditions: Table 7; human calcitonin (CTa) receptor
T2 construct: expressed in transfected cells; host or cells: BHK570
T2 sequence (P30988 25-474): T1 sequence (P30988 25-474)

[4] = Assay (III) ThT fibrillation assay for physical stability; type: physicochemical; conditions: ThT fibrillation assay
Summary of the method: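 Freshly prepared formulations, pH-adjusted, with 1 μM ThT; four or eight replicates incubated at 37 °C under 960 rpm orbital shaking. Fluorescence (ex 444/em 485 nm) read every 20 min; […]. Peptide concentration measured by RP-HPLC before and after the run.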

[5] = bistrispropane buffer, pH 6, pH 6.0, read-out: Solubility pH 6.0
[6] = bistrispropane buffer, pH 6.5, pH 6.5, read-out: Solubility pH 6.5
[7] = bistrispropane buffer, pH 7, pH 7.0, read-out: Solubility pH 7.0
[8] = bistrispropane buffer, pH 7.5, pH 7.5, read-out: Solubility pH 7.5
[9] = bistrispropane buffer, pH 8, pH 8.0, read-out: Solubility pH 8.0
[10] = glycylglycine buffer, pH 3, pH 3.0, read-out: Solubility pH 3.0
[11] = glycylglycine buffer, pH 4, pH 4.0, 18 hours at room temperature, Table 2, read-out: Solubility pH 4.0
[12] = glycylglycine buffer, pH 4, pH 4.0, read-out: Solubility pH 4.0
[13] = glycylglycine buffer, pH 5, pH 5.0, read-out: Solubility pH 5.0
[14] = bistrispropane buffer, pH 7, pH 7.0, 18 hours at room temperature, Table 3, read-out: Solubility pH 7.0

| solubility at 18 h [1, 5] [µM] | solubility at 18 h [1, 6] [µM] | solubility at 18 h [1, 7] [µM] | solubility at 18 h [1, 8] [µM] | solubility at 18 h [1, 9] [µM] | solubility at 18 h [1, 10] [µM] | solubility at 18 h [1, 11] [µM] | solubility at 18 h [1, 12] [µM] | solubility at 18 h [1, 13] [µM] | EC50 [2] [nM] | EC50 [3] [nM] | ThT pH 4.0 lag time (h) [4] [h] | ThT pH 4.0 lag time [4] [h] | solubility at 18 h [1, 14] [µM] | Compound |
| --- | --- | --- | --- | --- | --- | --- | --- | --- | --- | --- | --- | --- | --- | --- |
| 1 (≈ 4.71 µg/mL) | 1 (≈ 4.71 µg/mL) | 1 (≈ 4.71 µg/mL) | 1 (≈ 4.71 µg/mL) | 4 (≈ 18.9 µg/mL) | > 200 | 118 (≈ 556 µg/mL) | 118 (≈ 556 µg/mL) | 1 (≈ 4.71 µg/mL) | 0.402 | 0.798 | 0 | – | – | CC[C@H](C)[C@H](NC(=O)[C@@H]1CCCN1C(=O)CNC(=O)[C@H](Cc1ccccc1)NC(=O)[C@H](CC(N)=O)NC(=O)[C@H](CC(N)=O)NC(=O)[C@H](CO)NC(=O)[C@H](CO)NC(=O)[C@H](Cc1c[nH]cn1)NC(=O)[C@H](Cc1c[nH]cn1)NC(=O)[C@H](CC(C)C)NC(=O)[C@H](Cc1ccccc1)NC(=O)[C@H](CCC(=O)O)NC(=O)[C@H](C)NC(=O)[C@H](CC(C)C)NC(=O)[C@H](CCCNC(=N)N)NC(=O)[C@H](CCC(N)=O)NC(=O)[C@@H](NC(=O)[C@H](C)NC(=O)[C@@H]1CSSC[C@H](NC(=O)[C@H](CCCCN)NC(=O)[C@H](CCC(=O)O)NC(=O)[C@H](CCC(=O)O)NC(=O)CC[C@H](NC(=O)CCCCCCCCCCCCCCCCCCC(=O)O)C(=O)O)C(=O)N[C@@H](CC(N)=O)C(=O)N[C@@H]([C@@H](C)O)C(=O)N[C@@H](C)C(=O)N[C@@H]([C@@H](C)O)C(=O)N1)[C@@H](C)O)C(=O)N[C@@H](CC(C)C)C(=O)N1CCC[C@H]1C(=O)N1CCC[C@H]1C(=O)N[C@H](C(=O)N[C@@H](CC(N)=O)C(=O)N[C@H](C(=O)NCC(=O)N[C@@H](CO)C(=O)N[C@@H](CC(N)=O)C(=O)N[C@H](C(=O)N[C@@H](Cc1ccc(O)cc1)C(N)=O)[C@@H](C)O)C(C)C)[C@@H](C)O [Example 41, N-alpha-[(S)-4-Carboxy-4-(19-carboxynonadecanoylamino)butyryl]-Glu-Glu-[Glu14,His17]-pramlintide] ({C20 diacid-γGlu}-EEKCNTATCATQRLAEFLHHSSNNFGPILPPTNVGSNTY-NH2; disulfide 4-9 (inferred)) |
| 188 (≈ 886 µg/mL) | 48 (≈ 226 µg/mL) | 42 (≈ 198 µg/mL) | 134 (≈ 631 µg/mL) | > 200 | > 200 | > 200 | > 200 | > 200 | 0.0624 | 0.265 | 36.7 | 36.7 | – | CC[C@H](C)[C@H](NC(=O)[C@@H]1CCCN1C(=O)CNC(=O)[C@H](Cc1ccccc1)NC(=O)[C@H](CC(N)=O)NC(=O)[C@H](CC(N)=O)NC(=O)[C@H](CO)NC(=O)[C@H](CO)NC(=O)[C@H](Cc1c[nH]cn1)NC(=O)[C@H](Cc1c[nH]cn1)NC(=O)[C@H](CC(C)C)NC(=O)[C@H](Cc1ccccc1)NC(=O)[C@H](CCC(=O)O)NC(=O)[C@H](C)NC(=O)[C@H](CC(C)C)NC(=O)[C@H](CCCNC(=N)N)NC(=O)[C@H](CCC(N)=O)NC(=O)[C@@H](NC(=O)[C@H](C)NC(=O)[C@@H]1CSSC[C@H](NC(=O)[C@H](Cc2c[nH]cn2)NC(=O)[C@H](Cc2c[nH]cn2)NC(=O)[C@H](Cc2c[nH]cn2)NC(=O)CC[C@H](NC(=O)CCCCCCCCCCCCCCCCC(=O)O)C(=O)O)C(=O)N[C@@H](CC(N)=O)C(=O)N[C@@H]([C@@H](C)O)C(=O)N[C@@H](C)C(=O)N[C@@H]([C@@H](C)O)C(=O)N1)[C@@H](C)O)C(=O)N[C@@H](CC(C)C)C(=O)N1CCC[C@H]1C(=O)N1CCC[C@H]1C(=O)N[C@H](C(=O)N[C@@H](CC(N)=O)C(=O)N[C@H](C(=O)NCC(=O)N[C@@H](CO)C(=O)N[C@@H](CC(N)=O)C(=O)N[C@H](C(=O)N[C@@H](Cc1ccc(O)cc1)C(N)=O)[C@@H](C)O)C(C)C)[C@@H](C)O [Example 45, N-alpha-[(S)-4-Carboxy-4-(17-carboxyheptadecanoylamino)butyryl]-His-His-[His1,Glu14,His17]-pramlintide] ({C18 diacid-γGlu}-HHHCNTATCATQRLAEFLHHSSNNFGPILPPTNVGSNTY-NH2; disulfide 4-9 (inferred); C-terminus assumed) |
| 168 (≈ 768 µg/mL) | 87 (≈ 398 µg/mL) | 118 (≈ 540 µg/mL) | > 200 | > 200 | > 200 | > 200 | > 200 | > 200 | 0.059 | 0.258 | 6 | – | 118 (≈ 540 µg/mL) | CC[C@H](C)[C@H](NC(=O)[C@@H]1CCCN1C(=O)CNC(=O)[C@H](Cc1ccccc1)NC(=O)[C@H](CC(N)=O)NC(=O)[C@H](CC(N)=O)NC(=O)[C@H](CO)NC(=O)[C@H](CO)NC(=O)[C@H](Cc1c[nH]cn1)NC(=O)[C@H](Cc1c[nH]cn1)NC(=O)[C@H](CC(C)C)NC(=O)[C@H](Cc1ccccc1)NC(=O)[C@H](CCC(=O)O)NC(=O)[C@H](C)NC(=O)[C@H](CC(C)C)NC(=O)[C@H](CCCNC(=N)N)NC(=O)[C@H](CCC(N)=O)NC(=O)[C@@H](NC(=O)[C@H](C)NC(=O)[C@@H]1CSSC[C@H](NC(=O)[C@H](Cc2c[nH]cn2)NC(=O)[C@H](Cc2c[nH]cn2)NC(=O)CC[C@H](NC(=O)CCCCCCCCCCCCCCCCC(=O)O)C(=O)O)C(=O)N[C@@H](CC(N)=O)C(=O)N[C@@H]([C@@H](C)O)C(=O)N[C@@H](C)C(=O)N[C@@H]([C@@H](C)O)C(=O)N1)[C@@H](C)O)C(=O)N[C@@H](CC(C)C)C(=O)N1CCC[C@H]1C(=O)N1CCC[C@H]1C(=O)N[C@H](C(=O)N[C@@H](CC(N)=O)C(=O)N[C@H](C(=O)NCC(=O)N[C@@H](CO)C(=O)N[C@@H](CC(N)=O)C(=O)N[C@H](C(=O)N[C@@H](Cc1ccc(O)cc1)C(N)=O)[C@@H](C)O)C(C)C)[C@@H](C)O [Example 47, N-alpha-[(S)-4-Carboxy-4-(17-carboxyheptadecanoylamino)butyryl]-His-[His1,Glu14,His17]-pramlintide] ({C18 diacid-γGlu}-HHCNTATCATQRLAEFLHHSSNNFGPILPPTNVGSNTY-NH2; disulfide 3-8 (inferred); C-terminus assumed) |
| > 200 | > 200 | > 200 | > 200 | > 200 | > 200 | > 200 | > 200 | 27 (≈ 120 µg/mL) | 0.151 | 0.527 | 0 | – | > 200 | CC[C@H](C)[C@H](NC(=O)[C@@H]1CCCN1C(=O)CNC(=O)[C@H](Cc1ccccc1)NC(=O)[C@H](CC(N)=O)NC(=O)[C@H](CC(N)=O)NC(=O)[C@H](CO)NC(=O)[C@H](CO)NC(=O)[C@H](Cc1c[nH]cn1)NC(=O)[C@H](Cc1c[nH]cn1)NC(=O)[C@H](CC(C)C)NC(=O)[C@H](Cc1ccccc1)NC(=O)[C@H](CCC(=O)O)NC(=O)[C@H](C)NC(=O)[C@H](CC(C)C)NC(=O)[C@H](CCCNC(=N)N)NC(=O)[C@H](CCC(N)=O)NC(=O)[C@@H](NC(=O)[C@H](C)NC(=O)[C@@H]1CSSC[C@H](NC(=O)CC[C@H](NC(=O)CC[C@H](NC(=O)CCCCCCCCCCCCCCCCC(=O)O)C(=O)O)C(=O)O)C(=O)N[C@@H](CC(N)=O)C(=O)N[C@@H]([C@@H](C)O)C(=O)N[C@@H](C)C(=O)N[C@@H]([C@@H](C)O)C(=O)N1)[C@@H](C)O)C(=O)N[C@@H](CC(C)C)C(=O)N1CCC[C@H]1C(=O)N1CCC[C@H]1C(=O)N[C@H](C(=O)N[C@@H](CC(N)=O)C(=O)N[C@H](C(=O)NCC(=O)N[C@@H](CO)C(=O)N[C@@H](CC(N)=O)C(=O)N[C@H](C(=O)N[C@@H](Cc1ccc(O)cc1)C(N)=O)[C@@H](C)O)C(C)C)[C@@H](C)O [Example 49, N-alpha-{(S)-4-Carboxy-4-[(S)-4-Carboxy-4-(17-carboxyheptadecanoylamino)butyrylamino]butyryl}-[des1,Glu14,His17]-pramlintide] ({C18 diacid-γGlu-γGlu}-CNTATCATQRLAEFLHHSSNNFGPILPPTNVGSNTY-NH2; disulfide 1-6 (inferred)) |

Reference: US8722849B2, “Polypeptides” (Novo Nordisk A/S, priority 2011, dated 2014)
